Test results as given in patent publication US10968186B2, “Ascochlorin derivative and use thereof as AMPK activator” (priority 2016, dated 2021).
≈ marks a conversion by molar mass, not a printed value. Like-named read-outs stand apart in the source and are kept apart here.

What was measured:
[1] = Stability against human liver microsomes; assay type: in vitro ADME; conditions: 2 μM compound
Method: (§1) Determination of Stability Against Mouse and Human Mirosomes
(§2) Pooled human liver microsomes (Cat. 452161; Lot. 23418) were purchased from Corning and pooled male mouse liver microsomes (Cat. M1000; Lot. 1210302) were purchased from Xenotech. Microsomes were stored at −80° C. prior to use. 40 μL of ultra-pure H2O was used instead of NADPH solution in the negative control. The negative control was used to exclude the misleading factor that was resulted from instability of chemical itself. Samples with NADPH were prepared in duplicate. Negative controls were prepared in singlet.
(§3) The reaction was started with the addition of 4 μL of 200 μM compound solution to each master solution to get the final concentration of 2 μM. Verapamil was used as positive control in the assay. Aliquots of 50 μL were taken from the reaction solution at 0, 15, 30, 45 and 60 min. The reaction was stopped by addition of 4 volumes of cold acetonitrile with IS (200 nM imipramine, 200 nM labetalol and 2 μM ketoprofen). Samples were centrifuged at 3,220 g for 40 minutes. Aliquot of […] of the supernatant was mixed with 90 μL of ultra-pure H2O and then was used for LC-MS/MS analysis. Results are shown in Table 3 by indicating remaining % of the test compound after 60 minutes incubation with liver microsomes from human and mouse in the presence of NADPH.

[2] = Stability against mouse liver microsomes; assay type: in vitro ADME; conditions: for Liver microsome stability remaining % after 60 min incubation with NADPH, mouse LM: 2 μM compound
Method: as §1, §2, §3

[3] = Solubility in pH4.0 and pH7.4 phosphate buffer solution; assay type: physicochemical; conditions: phosphate buffer (PBS), aqueous buffer, kinetic from dmso stock, 2 hr incubation, 25° C.
Method: 1) Preparation of Stock Solutions
Diclofenac was used as positive control in the assay.
2) Procedures for Solubility Determination
This study was performed in duplicate. […] The filtered samples were diluted with methanol.
3) Samples Analyzed by LC-MS/MS

[4] = pH 4.0 phosphate buffer solution, read-out: Solubility, pH 4.0 PBS
[5] = pH 7.4 phosphate buffer solution, read-out: Solubility, pH 7.4 PBS

Compound | Liver microsome stability remaining % after 60 min incubation with NADPH, human LM [1] [%] | Liver microsome stability remaining % after 60 min incubation with NADPH, mouse LM [2] [%] | solubility at 2 h [3, 4] [µM] | solubility at 2 h [3, 5] [µM] | metabolic stability: % remained after 1 hr incubation ([2]; liver microsomes of human and mouse in the presence of NADPH, 1 hr) [%]
COc1c(Cl)c(C)c(/C=N/O)c(O)c1C/C=C(C)/C=C/[C@@]1(C)[C@H](C)CC/C(=N\O)[C@@H]1C [Compound 3, 4-chloro-2-[(2E,4E)-5-[(1R,2R,3E,6R)-3-(hydroxyimino)-1,2,6-trimethylcyclohexyl]-3-methylpenta-2,4-dien-1-yl]-6-[(1E)-(hydroxyimino)methyl]-3-methoxy-5-methylphenol] | 74 | 58 | – | – | –
CO/N=C/c1c(C)c(Cl)c(OC)c(C/C=C(C)/C=C/[C@@]2(C)[C@H](C)CC/C(=N\OC)[C@@H]2C)c1O [Compound 8, 4-chloro-3-methoxy-2-[(2E,4E)-5-[(1R,2R,3E,6R)-3-(methoxyimino)-1,2,6-trimethylcyclohexyl]-3-methylpenta-2,4-dien-1-yl]-6-[(1E)-(methoxyimino)methyl]-5-methylphenol] | 100 | 89 | – | – | –
CO/N=C/c1c(C)c(Cl)c(OCF)c(C/C=C(C)/C=C/[C@@]2(C)[C@H](C)CC/C(=N\OC)[C@@H]2C)c1O [Compound 9, 4-chloro-3-(fluoromethoxy)-2-[(2E,4E)-5-[(1R,2R,3E,6R)-3-(methoxyimino)-1,2,6-trimethylcyclohexyl]-3-methylpenta-2,4-dien-1-yl]-6-[(1E)-(methoxyimino)methyl]-5-methylphenol] | 100 | 83 | – | – | –
CO/N=C/c1c(C)c(Cl)c(OC)c(C/C=C(C)/C=C/[C@@]2(C)[C@H](C)CC/C(=N\O)[C@@H]2C)c1O [Compound 10, 4-chloro-2-[(2E,4E)-5-[(1R,2R,3E,6R)-3-(hydroxyimino)-1,2,6-trimethylcyclohexyl]-3-methylpenta-2,4-dien-1-yl]-3-methoxy-6-[(1E)-(methoxyimino)methyl]-5-methylphenol] | 83 | 63 | – | – | –
CO/N=C/c1c(C)c(Cl)c(OCF)c(C/C=C(C)/C=C/[C@@]2(C)[C@H](C)CC/C(=N\O)[C@@H]2C)c1O [Compound 11, 4-chloro-3-(fluoromethoxy)-2-[(2E,4E)-5-[(1R,2R,3E,6R)-3-(hydroxyimino)-1,2,6-trimethylcyclohexyl]-3-methylpenta-2,4-dien-1-yl]-6-[(1E)-(methoxyimino)methyl]-5-methylphenol] | 81 | 56 | – | – | –
CO/N=C/c1c(C)c(Cl)c(OC)c(C/C=C(C)/C=C/[C@@]2(C)[C@H](C)CCC(C)(O)[C@@H]2C)c1O (stereo partly drawn) [Compound 14, (E)-3-chloro-6-hydroxy-5-((2E,4E)-5-((1R,2R,6R)-3-hydroxy-1,2,3,6-tetramethylcyclohexyl)-3-methylpenta-2,4-dien-1-yl)-4-methoxy-2-methylbenzaldehyde O-methyl oxime] | 99 | 88 | – | – | –
CO/N=C/c1c(C)c(Cl)c(OC)c(C/C=C(C)/C=C/[C@@]2(C)[C@H](C)CC/C(=N\OCCN3CCOCC3)[C@@H]2C)c1O [Compound 16, 4-chloro-3-methoxy-6-[(1E)-(methoxyimino)methyl]-5-methyl-2-[(2E,4E)-3-methyl-5-[(1R,2R,3E,6R)-1,2,6-trimethyl-3-[[2-(morpholin-4-yl)ethoxy]imino]cyclohexyl]penta-2,4-dien-1-yl]phenol] | 56 | 76 | – | – | –
CCOC(=O)CO/N=C1\CC[C@@H](C)[C@](C)(/C=C/C(C)=C/Cc2c(O)c(/C=N/OC)c(C)c(Cl)c2OC)[C@H]1C [Compound 18, ethyl 2-([[(1E,2R,3R,4R)-3-[(1E,3E)-5-[3-chloro-6-hydroxy-2-methoxy-5-[(1E)-(methoxyimino)methyl]-4-methylphenyl]-3-methylpenta-1,3-dien-1-yl]-2,3,4-trimethylcyclohexylidene]amino]oxy)acetate] | 86 | 59 | – | – | –
CO/N=C/c1c(C)c(Cl)c(OC)c(C/C=C(C)/C=C/[C@@]2(C)[C@H](C)CCC(NC3CC3)[C@@H]2C)c1O (stereo partly drawn) [Compound 23, 4-chloro-2-[(2E,4E)-5-[(1R,2R,6R)-3-(cyclopropylamino)-1,2,6-trimethylcyclohexyl]-3-methylpenta-2,4-dien-1-yl]-3-methoxy-6-[(1E)-(methoxyimino)methyl]-5-methylphenol] | 74 | 98 | – | – | –
CO/N=C/c1c(C)c(Cl)c(OC)c(C/C=C(C)/C=C/[C@@]2(C)[C@H](C)CCC(NC3COC3)[C@@H]2C)c1O (stereo partly drawn) [Compound 25, 4-chloro-3-methoxy-6-[(1E)-(methoxyimino)methyl]-5-methyl-2-[(2E,4E)-3-methyl-5-[(1R,2R,6R)-1,2,6-trimethyl-3-[(oxetan-3-yl)amino]cyclohexyl]penta-2,4-dien-1-yl]phenol] | 66 | 39 | – | – | –
CC(/C=C/[C@@]1(C)[C@H](C)CC/C(=N\OCC(=O)O)[C@@H]1C)=C\Cc1c(O)c(C=O)c(C)c(Cl)c1OCF [Compound 26, 2-([[(1E,2R,3R,4R)-3-[(1E,3E)-5-[3-chloro-2-(fluoromethoxy)-5-formyl-6-hydroxy-4-methylphenyl]-3-methylpenta-1,3-dien-1-yl]-2,3,4-trimethylcyclohexylidene]amino]oxy)acetic Acid] | – | – | 192 (≈ 97.9 µg/mL) | 12.3 (≈ 6.27 µg/mL) | –
CC(/C=C/[C@@]1(C)[C@H](C)CC/C(=N\OCC(=O)O)[C@@H]1C)=C\Cc1c(O)c(/C=N/O)c(C)c(Cl)c1OCF [Compound 27, 2-([[(1E,2R,3R,4R)-3-[(1E,3E)-5-[3-chloro-2-(fluoromethoxy)-6-hydroxy-5-[(1E)-(hydroxyimino)methyl]-4-methylphenyl]-3-methylpenta-1,3-dien-1-yl]-2,3,4-trimethylcyclohexylidene]amino]oxy)acetic Acid] | 99 | 97 | 165 (≈ 86.6 µg/mL) | 315 (≈ 165 µg/mL) | –
COc1c(Cl)c(C)c(C=O)c(O)c1C/C=C(C)/C=C/[C@@]1(C)[C@H](C)CCC(=O)[C@@H]1C [MAC, 3-chloro-6-hydroxy-4-methoxy-2-methyl-5-[(2E,4E)-3-methyl-5-[(1R,2R,6R)-1,2,6-trimethyl-3-oxocyclohexyl]penta-2,4-dien-1-yl]benzaldehyde, reference compound] | 2 | 6 | < 0.08 | 0.07 (≈ 0.0293 µg/mL) | 6
